From patent US10730875B2, “Substituted imidazo[1,2-A]pyridin-2-ylamine compounds, and pharmaceutical compositions and methods of use thereof” (JN Therapeutics, priority 2015, dated 2020)

Legend:
[1] = target: human Janus kinase 1 (JAK1), recombinant catalytic domain (Homo sapiens (Human), UniProt P23458); test: LanthaScreen TR-FRET enzymatic assay, JAK1; format: biochemical; conditions: 1 mM ATP, GFP-STAT1 substrate, read-out: Inhibitory Activity IC50 JAK1
Method in brief: (§1)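 Insect-cell-expressed catalytic domains (JAK1 aa 866-1154, 440 ng/mL; JAK2 aa 808-1132, 11 ng/mL; JAK3 aa 781-1124, 400 ng/mL; TYK2 aa 833-1187, 200 ng/mL) preincubated 15 min with compound, then reacted 1 h at room temperature with 100 nM GFP-STAT1 and 1 mM ATP. pTyr701 detected by TR-FRET (terbium antibody); IC50 from 10-dose sigmoid fits.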

[2] = target: human Janus kinase 2 (JAK2), recombinant catalytic domain (Homo sapiens (Human), UniProt O60674); test: LanthaScreen TR-FRET enzymatic assay, JAK2; format: biochemical
Method in brief: as §1

[3] = target: human Janus kinase 3 (JAK3), recombinant catalytic domain (Homo sapiens (Human), UniProt P52333); test: LanthaScreen TR-FRET enzymatic assay, JAK3; format: biochemical; conditions: TR-FRET, 1 mM ATP, GFP-STAT1 substrate; read-out: Inhibitory Activity IC50 JAK3
Method in brief: as §1

[4] = test system: human Janus kinase 3 (JAK3), recombinant catalytic domain; test: LanthaScreen TR-FRET enzymatic assay, JAK3; format: biochemical; conditions: ratio of IC50 against JAK3 over IC50 against JAK1
Method in brief: as §1

[5] = Pharmacokinetics in Sprague-Dawley rats (HPLC-MS/MS of plasma); format: in vivo; conditions: rat
Protocol: The PK parameters of compound 14 were determined in Sprague-Dawley rats (Hubei Provincial Laboratory Animal Research Center) after a single oral (p.o) and intravenous (i.v.) administration using HPLC-MS/MS (Shimadzu LC-20ACXR HPLC coupled with AB Sciex API 4500 Qtrap).
A sensitive and specific HPLC-MS/MS method was developed for the determination of the compound in rat plasma. Multiple reaction monitoring (MRM) mode was used for the quantification of the compound by monitoring the ion transitions at m/z from 443.1 to 375.1. Compound 2 was used as an internal standard and monitored by the ion transition at m/z from 427.1 to 357.1. Calibration curves were constructed in the range of 1.00-1000 ng/mL in rat plasma extract by a 1/×2 weighted quadratic regression. The regression coefficients obtained were greater than 0.99 and back calculated values comprised in the range of ±15% from their nominal concentration.
For the intravenous administration, the compound was dissolved in 25% PEG200 in saline and intravenously administrated at a single dose of 1.00 mg/kg. For the oral administration, the compound was suspended in 0.5% sodium carboxymethylcellulose (CMC-Na) solution and intragastrically administrated at a single dose of 5.00 mg/kg. Approximately 0.200 mL of blood sample were collected from orbital venous plexus at 0 (predose), 0.25, 0.5, 1, 2, 4, 8, 12 and 24 hrs post dosing. All samples were placed into EDTA-K2-treated tubes and centrifuged at 3,500 rpm at 4° C. for 10 min to separate the plasma fractions. The plasma samples were stored at −20° C. prior to analysis. The plasma samples were analyzed with the HPLC-MS/MS method.

[6] = Sprague-Dawley, plasma, IV, single dose 1.00 mg/kg
[7] = Sprague-Dawley, plasma, PO, single dose 5.00 mg/kg

Chain of human Janus kinase 2 (JAK2), recombinant catalytic domain (O60674 808-1132): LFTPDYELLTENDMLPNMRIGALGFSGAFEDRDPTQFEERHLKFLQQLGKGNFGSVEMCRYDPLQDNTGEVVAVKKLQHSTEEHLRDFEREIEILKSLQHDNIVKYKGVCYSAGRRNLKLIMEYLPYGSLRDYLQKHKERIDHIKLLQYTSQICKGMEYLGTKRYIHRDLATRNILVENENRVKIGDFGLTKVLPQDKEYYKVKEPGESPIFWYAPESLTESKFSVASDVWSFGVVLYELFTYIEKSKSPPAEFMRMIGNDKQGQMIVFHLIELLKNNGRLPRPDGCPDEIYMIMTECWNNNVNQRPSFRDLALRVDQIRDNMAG
Chain of human Janus kinase 1 (JAK1), recombinant catalytic domain (P23458 866-1154): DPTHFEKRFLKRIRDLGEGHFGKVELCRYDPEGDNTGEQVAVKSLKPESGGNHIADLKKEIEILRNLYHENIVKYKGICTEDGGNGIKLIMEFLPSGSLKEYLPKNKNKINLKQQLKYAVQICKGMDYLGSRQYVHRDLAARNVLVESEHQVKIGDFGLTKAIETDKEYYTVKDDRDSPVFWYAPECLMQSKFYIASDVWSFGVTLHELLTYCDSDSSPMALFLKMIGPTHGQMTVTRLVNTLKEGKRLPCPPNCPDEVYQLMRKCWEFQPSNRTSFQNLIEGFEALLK
Chain of human Janus kinase 3 (JAK3), recombinant catalytic domain (Homo sapiens (Human), UniProt P52333) (P52333 781-1124): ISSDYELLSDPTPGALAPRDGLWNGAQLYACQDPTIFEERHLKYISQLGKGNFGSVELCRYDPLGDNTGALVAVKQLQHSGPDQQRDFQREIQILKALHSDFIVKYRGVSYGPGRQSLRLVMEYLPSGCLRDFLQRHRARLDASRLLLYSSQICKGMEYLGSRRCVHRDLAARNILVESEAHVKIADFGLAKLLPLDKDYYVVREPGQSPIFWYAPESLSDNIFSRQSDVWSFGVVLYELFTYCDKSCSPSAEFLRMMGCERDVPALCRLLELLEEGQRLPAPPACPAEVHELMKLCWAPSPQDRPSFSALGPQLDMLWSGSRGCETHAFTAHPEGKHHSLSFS

- IC50 [1]: ≤ 500 nM
- IC50 ([2]; TR-FRET, 1 mM ATP, GFP-STAT1 substrate, read-out: Inhibitory Activity IC50 JAK2): 1000 to 5000 nM
- IC50 [3]: > 5000 nM
- F ([5]; PO, single dose 5.00 mg/kg): 46.7 ± 7.3%
- AUC(0-t) [5, 6]: 677 ± 122 ng·h/mL
- MRT [5, 6]: 1.4 ± 0.2 h
- clearance [5, 6]: 24.8 mL/min/kg
- half-life [5, 6]: 1.4 ± 0.3 h
- Vd ([5]; Sprague-Dawley, plasma, IV, single dose 1.00 mg/kg, read-out: Vz): 2.98 ± 0.912 L/kg
- AUC(0-t) [5, 7]: 1590 ± 253 ng·h/mL
- Cmax [5, 7]: 571 ± 190 ng/mL
- MRT [5, 7]: 2.3 ± 0.4 h
- Tmax [5, 7]: 0.63 ± 0.25 h
- half-life [5, 7]: 1.9 ± 0.3 h
Compound: O=C(Nc1cn2c(-c3ccc(CN4CCS(=O)(=O)CC4)cc3F)cccc2n1)C1CC1 [Compound 14]
- Selectivity JAK2/JAK1 ([2]; ratio of IC50 against JAK2 over IC50 against JAK1): A′ (A′ represents a ratio of greater than 8)
- Selectivity JAK3/JAK1 [4]: A′ (A′ represents a ratio of greater than 8)
